Assay results as given in PMC10174618, “Monoterpenoid aryl hydrocarbon receptor allosteric antagonists protect against ultraviolet skin damage in female mice” (Nature Communications, 2023).

Assays:
Assay in all cases: biochemical
Set-up in all cases: KINOMEscan scanMAX active site-directed competition binding assay, percent of control, 468 kinases
Conditions in all cases: competition binding, percent of control
TYRO3 = TYRO3 (Homo sapiens, UniProt Q06418)
Procedure, shortened: (§1)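 KINOMEscan active site-directed competition binding assay against 468 human kinases with 100 μM S-carvone. Binding expressed as % of control, with 35% of control as the inhibition threshold.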

YANK1 = target: T1, YANK1 (Homo sapiens, UniProt Q8WU08)
T1 construct: gene STK32A
Procedure, shortened: as §1

PYK2 = target: T2, PYK2 (Homo sapiens, UniProt Q14289)
T2 construct: gene PTK2B
Procedure, shortened: as §1

LTK = LTK (Homo sapiens, UniProt P29376)
Procedure, shortened: as §1

SRPK2 = SRPK2 (Homo sapiens, UniProt P78362)
Procedure, shortened: as §1

PRKR = target: T3, PRKR (Homo sapiens, UniProt P19525)
T3 construct: gene EIF2AK2
Procedure, shortened: as §1

ACVR1B = ACVR1B (Homo sapiens, UniProt P36896)
Procedure, shortened: as §1

ABL2 = ABL2 (Homo sapiens, UniProt P42684)
Procedure, shortened: as §1

ERK4 = target: T4, ERK4 (Homo sapiens, UniProt P31152)
T4 construct: gene MAPK4
Procedure, shortened: as §1

EPHB6 = EPHB6 (Homo sapiens, UniProt O15197)
Procedure, shortened: as §1

MST4 = target: T5, MST4 (Homo sapiens, UniProt Q9P289)
T5 construct: gene STK26
Procedure, shortened: as §1

FLT3(D835Y) = FLT3(D835Y) (Homo sapiens, UniProt P36888, D835Y)
Procedure, shortened: as §1

FGFR3 = FGFR3 (Homo sapiens, UniProt P22607)
Procedure, shortened: as §1

CAMK1G = CAMK1G (Homo sapiens, UniProt Q96NX5)
Procedure, shortened: as §1

NEK4 = NEK4 (Homo sapiens, UniProt P51957)
Procedure, shortened: as §1

MRCKA = target: T6, MRCKA (Homo sapiens, UniProt Q5VT25)
T6 construct: gene CDC42BPA
Procedure, shortened: as §1

MTOR = MTOR (Homo sapiens, UniProt P42345)
Procedure, shortened: as §1

CDKL2 = CDKL2 (Homo sapiens, UniProt Q92772)
Procedure, shortened: as §1

DAPK2 = DAPK2 (Homo sapiens, UniProt Q9UIK4)
Procedure, shortened: as §1

[1] = target: T7, JAK2(JH1domain-catalytic) (Homo sapiens, UniProt O60674)
T7 construct: JH1domain-catalytic
Procedure, shortened: as §1

TRPM6 = TRPM6 (Homo sapiens, UniProt Q9BX84)
Procedure, shortened: as §1

CLK2 = CLK2 (Homo sapiens, UniProt P49760)
Procedure, shortened: as §1

Sequence of ABL2 (P42684 whole entry): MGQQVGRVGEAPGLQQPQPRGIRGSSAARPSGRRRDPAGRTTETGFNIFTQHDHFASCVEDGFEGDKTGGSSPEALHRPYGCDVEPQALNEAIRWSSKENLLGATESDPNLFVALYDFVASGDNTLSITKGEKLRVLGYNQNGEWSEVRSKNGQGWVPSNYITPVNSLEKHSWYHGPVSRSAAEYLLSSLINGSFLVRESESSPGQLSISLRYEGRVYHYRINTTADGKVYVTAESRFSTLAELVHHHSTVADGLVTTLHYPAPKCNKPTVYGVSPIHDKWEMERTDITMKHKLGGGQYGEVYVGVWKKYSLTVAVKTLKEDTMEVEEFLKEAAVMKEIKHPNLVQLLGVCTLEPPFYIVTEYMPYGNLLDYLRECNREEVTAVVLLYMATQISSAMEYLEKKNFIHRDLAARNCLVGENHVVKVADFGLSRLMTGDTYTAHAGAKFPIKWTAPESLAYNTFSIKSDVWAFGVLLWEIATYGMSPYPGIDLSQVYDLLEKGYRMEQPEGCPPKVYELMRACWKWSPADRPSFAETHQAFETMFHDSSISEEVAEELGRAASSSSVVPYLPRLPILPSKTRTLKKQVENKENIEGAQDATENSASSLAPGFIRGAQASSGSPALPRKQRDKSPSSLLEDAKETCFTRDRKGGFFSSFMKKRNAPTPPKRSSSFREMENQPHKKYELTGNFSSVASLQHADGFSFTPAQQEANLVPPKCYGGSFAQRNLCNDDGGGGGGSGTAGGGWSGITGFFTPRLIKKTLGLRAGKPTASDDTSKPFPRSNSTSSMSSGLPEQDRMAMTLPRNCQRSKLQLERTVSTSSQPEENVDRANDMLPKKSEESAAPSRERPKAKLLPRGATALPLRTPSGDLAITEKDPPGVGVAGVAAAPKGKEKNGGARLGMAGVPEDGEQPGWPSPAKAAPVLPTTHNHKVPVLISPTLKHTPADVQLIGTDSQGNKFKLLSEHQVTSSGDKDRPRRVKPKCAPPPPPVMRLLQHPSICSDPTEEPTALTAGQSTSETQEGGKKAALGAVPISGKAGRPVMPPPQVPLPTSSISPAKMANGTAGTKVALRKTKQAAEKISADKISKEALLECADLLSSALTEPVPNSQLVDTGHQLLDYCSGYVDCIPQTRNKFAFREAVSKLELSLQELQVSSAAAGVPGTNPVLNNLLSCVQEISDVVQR
Sequence of CLK2 (P49760 whole entry): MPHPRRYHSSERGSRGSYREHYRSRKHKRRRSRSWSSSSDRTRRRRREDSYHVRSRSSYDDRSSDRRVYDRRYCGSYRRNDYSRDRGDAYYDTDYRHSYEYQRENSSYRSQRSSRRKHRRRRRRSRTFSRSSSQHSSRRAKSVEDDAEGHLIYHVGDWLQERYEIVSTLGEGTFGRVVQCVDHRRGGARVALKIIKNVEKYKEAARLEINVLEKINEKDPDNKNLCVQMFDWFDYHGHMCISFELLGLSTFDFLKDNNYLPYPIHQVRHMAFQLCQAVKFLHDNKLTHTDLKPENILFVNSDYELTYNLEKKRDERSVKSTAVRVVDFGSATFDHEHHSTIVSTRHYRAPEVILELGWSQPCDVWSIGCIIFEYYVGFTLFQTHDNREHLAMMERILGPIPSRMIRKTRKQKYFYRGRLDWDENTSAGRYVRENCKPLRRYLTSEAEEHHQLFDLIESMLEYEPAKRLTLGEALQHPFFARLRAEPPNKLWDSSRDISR
T3 sequence (P19525 whole entry): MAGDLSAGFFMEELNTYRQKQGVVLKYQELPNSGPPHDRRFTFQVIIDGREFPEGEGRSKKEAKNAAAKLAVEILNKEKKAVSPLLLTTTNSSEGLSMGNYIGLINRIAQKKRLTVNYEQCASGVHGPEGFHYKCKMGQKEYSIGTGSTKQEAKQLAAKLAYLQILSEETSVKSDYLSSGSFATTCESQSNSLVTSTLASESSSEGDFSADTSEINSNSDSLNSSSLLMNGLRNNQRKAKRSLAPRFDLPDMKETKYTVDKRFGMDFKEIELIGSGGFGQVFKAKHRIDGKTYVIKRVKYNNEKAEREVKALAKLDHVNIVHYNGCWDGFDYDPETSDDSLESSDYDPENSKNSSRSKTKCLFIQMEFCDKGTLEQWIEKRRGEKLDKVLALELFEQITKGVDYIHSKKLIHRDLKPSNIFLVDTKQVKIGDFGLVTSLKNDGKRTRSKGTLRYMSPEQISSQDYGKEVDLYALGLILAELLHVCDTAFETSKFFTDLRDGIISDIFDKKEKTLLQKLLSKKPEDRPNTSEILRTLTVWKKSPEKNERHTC
Sequence of CDKL2 (Q92772 whole entry): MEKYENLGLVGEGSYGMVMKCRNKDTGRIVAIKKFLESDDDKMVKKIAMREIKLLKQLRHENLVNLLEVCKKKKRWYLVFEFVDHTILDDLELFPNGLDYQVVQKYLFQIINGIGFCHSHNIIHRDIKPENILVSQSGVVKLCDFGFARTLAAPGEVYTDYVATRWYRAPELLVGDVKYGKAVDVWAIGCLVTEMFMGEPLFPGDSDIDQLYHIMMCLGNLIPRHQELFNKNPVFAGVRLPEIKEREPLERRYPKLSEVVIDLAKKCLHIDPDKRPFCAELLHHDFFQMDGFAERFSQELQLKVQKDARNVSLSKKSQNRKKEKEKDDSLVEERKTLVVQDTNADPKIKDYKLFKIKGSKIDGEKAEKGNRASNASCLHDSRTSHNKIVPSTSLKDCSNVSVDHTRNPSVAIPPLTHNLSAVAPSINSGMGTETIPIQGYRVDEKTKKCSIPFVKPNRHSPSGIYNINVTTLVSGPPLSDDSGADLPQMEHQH
Sequence of CAMK1G (Q96NX5 whole entry): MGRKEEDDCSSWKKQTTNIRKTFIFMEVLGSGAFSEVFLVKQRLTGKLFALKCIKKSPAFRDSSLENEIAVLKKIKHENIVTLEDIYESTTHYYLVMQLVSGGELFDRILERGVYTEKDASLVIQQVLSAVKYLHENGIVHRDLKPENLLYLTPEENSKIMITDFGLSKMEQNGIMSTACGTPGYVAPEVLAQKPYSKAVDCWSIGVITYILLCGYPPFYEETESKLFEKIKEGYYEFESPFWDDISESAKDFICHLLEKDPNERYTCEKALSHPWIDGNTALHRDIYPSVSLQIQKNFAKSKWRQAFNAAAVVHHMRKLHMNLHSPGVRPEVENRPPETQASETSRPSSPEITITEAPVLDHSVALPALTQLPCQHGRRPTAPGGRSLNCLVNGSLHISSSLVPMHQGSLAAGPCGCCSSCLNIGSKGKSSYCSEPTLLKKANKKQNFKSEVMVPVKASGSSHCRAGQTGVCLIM
Sequence of LTK (P29376 whole entry): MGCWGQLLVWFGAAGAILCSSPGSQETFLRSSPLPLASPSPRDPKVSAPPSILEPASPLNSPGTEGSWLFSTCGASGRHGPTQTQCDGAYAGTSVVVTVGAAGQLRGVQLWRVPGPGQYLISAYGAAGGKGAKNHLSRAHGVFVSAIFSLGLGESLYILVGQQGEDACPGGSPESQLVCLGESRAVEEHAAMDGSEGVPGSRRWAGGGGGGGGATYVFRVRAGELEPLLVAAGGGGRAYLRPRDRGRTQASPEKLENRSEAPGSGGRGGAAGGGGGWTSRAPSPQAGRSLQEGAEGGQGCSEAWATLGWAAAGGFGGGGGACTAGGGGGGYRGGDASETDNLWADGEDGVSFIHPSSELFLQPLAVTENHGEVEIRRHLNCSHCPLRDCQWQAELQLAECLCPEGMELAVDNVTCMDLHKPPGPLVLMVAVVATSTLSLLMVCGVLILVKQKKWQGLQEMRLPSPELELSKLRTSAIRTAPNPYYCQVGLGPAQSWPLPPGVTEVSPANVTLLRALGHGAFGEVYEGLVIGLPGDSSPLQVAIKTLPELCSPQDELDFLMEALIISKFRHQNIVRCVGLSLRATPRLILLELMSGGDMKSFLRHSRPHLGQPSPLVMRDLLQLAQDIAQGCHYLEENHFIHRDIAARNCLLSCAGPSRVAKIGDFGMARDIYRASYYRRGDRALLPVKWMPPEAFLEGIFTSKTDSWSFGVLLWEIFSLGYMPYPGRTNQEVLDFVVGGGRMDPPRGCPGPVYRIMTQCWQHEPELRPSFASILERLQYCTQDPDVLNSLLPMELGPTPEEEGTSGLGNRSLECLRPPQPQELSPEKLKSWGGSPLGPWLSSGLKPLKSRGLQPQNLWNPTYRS
T1 sequence (Q8WU08 whole entry): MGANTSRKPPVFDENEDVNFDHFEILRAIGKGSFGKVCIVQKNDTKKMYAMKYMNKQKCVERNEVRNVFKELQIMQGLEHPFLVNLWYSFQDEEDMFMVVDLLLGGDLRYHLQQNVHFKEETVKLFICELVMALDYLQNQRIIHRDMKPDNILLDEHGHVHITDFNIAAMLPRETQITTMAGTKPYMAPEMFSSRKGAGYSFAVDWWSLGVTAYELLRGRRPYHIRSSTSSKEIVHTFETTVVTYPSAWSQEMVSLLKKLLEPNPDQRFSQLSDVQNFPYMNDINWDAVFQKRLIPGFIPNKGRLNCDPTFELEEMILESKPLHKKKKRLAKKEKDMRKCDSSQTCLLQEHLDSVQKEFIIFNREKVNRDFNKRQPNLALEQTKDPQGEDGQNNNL
T4 sequence (P31152 whole entry): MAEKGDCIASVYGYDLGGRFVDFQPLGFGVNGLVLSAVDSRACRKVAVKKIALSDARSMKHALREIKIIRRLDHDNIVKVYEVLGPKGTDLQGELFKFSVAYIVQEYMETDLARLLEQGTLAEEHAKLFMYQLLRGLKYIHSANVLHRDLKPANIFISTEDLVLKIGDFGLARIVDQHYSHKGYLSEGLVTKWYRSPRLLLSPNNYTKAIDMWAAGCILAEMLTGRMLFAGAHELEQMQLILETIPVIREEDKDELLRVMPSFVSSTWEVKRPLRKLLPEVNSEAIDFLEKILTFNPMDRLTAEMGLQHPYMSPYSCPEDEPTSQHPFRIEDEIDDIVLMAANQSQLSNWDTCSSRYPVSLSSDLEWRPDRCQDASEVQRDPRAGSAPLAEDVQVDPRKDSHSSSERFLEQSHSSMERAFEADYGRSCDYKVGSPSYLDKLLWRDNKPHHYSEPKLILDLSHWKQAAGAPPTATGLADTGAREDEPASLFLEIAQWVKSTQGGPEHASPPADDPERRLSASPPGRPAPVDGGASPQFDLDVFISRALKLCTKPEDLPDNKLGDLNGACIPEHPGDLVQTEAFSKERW

Compound: C=C(C)[C@H]1CC=C(C)C(=O)C1 [S-carvone]
- remaining binding at 100 µM (TYRO3): 87%
- remaining binding at 100 µM (YANK1): 78%
- remaining binding at 100 µM (PYK2): 80%
- remaining binding at 100 µM (LTK): 79%
- remaining binding at 100 µM (SRPK2): 99%
- remaining binding at 100 µM (PRKR): 74%
- remaining binding at 100 µM (ACVR1B): 98%
- remaining binding at 100 µM (ABL2): 85%
- remaining binding at 100 µM (ERK4): 89%
- remaining binding at 100 µM (EPHB6): 51%
- remaining binding at 100 µM (MST4): 100%
- remaining binding at 100 µM (FLT3(D835Y)): 90%
- remaining binding at 100 µM (FGFR3): 75%
- remaining binding at 100 µM (CAMK1G): 89%
- remaining binding at 100 µM (NEK4): 97%
- remaining binding at 100 µM (MRCKA): 80%
- remaining binding at 100 µM (MTOR): 78%
- remaining binding at 100 µM (CDKL2): 85%
- remaining binding at 100 µM (DAPK2): 79%
- remaining binding at 100 µM [1]: 78%
- remaining binding at 100 µM (TRPM6): 87%
- remaining binding at 100 µM (CLK2): 60%
